Laboratory results taken from the supplement of paper PMC5303821, “Major sulfonate transporter Soa1 in Saccharomyces cerevisiae and considerable substrate diversity in its fungal family” (Nature Communications, 2017).

Assays:
[1] = test system: Saccharomyces eubayanus_SOA2; assay: lag phase before growth; higher = slower start of growth; conditions: sulfur source concentration 200 µM; S. cerevisiae S288C/BY sul1Δ sul2Δ soa1Δ with transporter ortholog inserted at SOA1 locus; sulfur-free B medium, 4% glucose, pH 6.5, sole sulfur source
[2] = test system: Saccharomyces eubayanus_SOA2; assay: maximal culture density with compound as sole sulfur source (OD600); higher = better growth; conditions: S. cerevisiae S288C/BY sul1Δ sul2Δ soa1Δ with transporter ortholog inserted at SOA1 locus, sulfur-free B medium, 4% glucose, pH 6.5, sole sulfur source
[3] = test system: Aspergillus nidulans (IAM 2006)_astA; assay: as above; conditions: S. cerevisiae S288C/BY sul1Δ sul2Δ soa1Δ with transporter ortholog inserted at SOA1 locus, sulfur-free B medium, 4% glucose, pH 6.5, sole sulfur source
[4] = test system: Metarhizium robertsii_XP_007822519; assay: as above; conditions: S. cerevisiae S288C/BY sul1Δ sul2Δ soa1Δ with transporter ortholog inserted at SOA1 locus, sulfur-free B medium, 4% glucose, pH 6.5, sole sulfur source
[5] = test system: Aspergillus nidulans_XP_660670; assay: as above; conditions: S. cerevisiae S288C/BY sul1Δ sul2Δ soa1Δ with transporter ortholog inserted at SOA1 locus, sulfur-free B medium, 4% glucose, pH 6.5, sole sulfur source
[6] = test system: Ogataea parapolymorpha_XP_013936897; assay: as above; conditions: S. cerevisiae S288C/BY sul1Δ sul2Δ soa1Δ with transporter ortholog inserted at SOA1 locus, sulfur-free B medium, 4% glucose, pH 6.5, sole sulfur source
[7] = test system: Fusarium oxysporum_ENH65823; assay: as above; conditions: sulfur source concentration 200 µM; S. cerevisiae S288C/BY sul1Δ sul2Δ soa1Δ with transporter ortholog inserted at SOA1 locus; sulfur-free B medium, 4% glucose, pH 6.5, sole sulfur source
[8] = test system: Aspergillus nidulans_XP_681611; assay: as above; conditions: S. cerevisiae S288C/BY sul1Δ sul2Δ soa1Δ with transporter ortholog inserted at SOA1 locus, sulfur-free B medium, 4% glucose, pH 6.5, sole sulfur source
[9] = test system: Ogataea parapolymorpha_XP_013935289; assay: as above; conditions: S. cerevisiae S288C/BY sul1Δ sul2Δ soa1Δ with transporter ortholog inserted at SOA1 locus, sulfur-free B medium, 4% glucose, pH 6.5, sole sulfur source
[10] = test system: Saccharomyces eubayanus_SOA1; assay: as above; conditions: S. cerevisiae S288C/BY sul1Δ sul2Δ soa1Δ with transporter ortholog inserted at SOA1 locus, sulfur-free B medium, 4% glucose, pH 6.5, sole sulfur source
[11] = test system: Metarhizium robertsii_XP_007821441; assay: as above; conditions: S. cerevisiae S288C/BY sul1Δ sul2Δ soa1Δ with transporter ortholog inserted at SOA1 locus, sulfur-free B medium, 4% glucose, pH 6.5, sole sulfur source
[12] = test system: Saccharomyces uvarum_SOA1; assay: as above; conditions: S. cerevisiae S288C/BY sul1Δ sul2Δ soa1Δ with transporter ortholog inserted at SOA1 locus, sulfur-free B medium, 4% glucose, pH 6.5, sole sulfur source
soa1 del [13] = assay: as above; conditions: S. cerevisiae S288C/BY sul1Δ sul2Δ soa1Δ with transporter ortholog inserted at SOA1 locus, sulfur-free B medium, 4% glucose, pH 6.5, sole sulfur source
[14] = test system: Aspergillus nidulans_CBF80346; assay: as above; conditions: S. cerevisiae S288C/BY sul1Δ sul2Δ soa1Δ with transporter ortholog inserted at SOA1 locus, sulfur-free B medium, 4% glucose, pH 6.5, sole sulfur source
[15] = test system: Metarhizium robertsii_XP_007823832; assay: lag phase before growth; higher = slower start of growth; conditions: S. cerevisiae S288C/BY sul1Δ sul2Δ soa1Δ with transporter ortholog inserted at SOA1 locus, sulfur-free B medium, 4% glucose, pH 6.5, sole sulfur source
[16] = test system: Aspergillus nidulans (IAM 2006)_astA; assay: as above; conditions: S. cerevisiae S288C/BY sul1Δ sul2Δ soa1Δ with transporter ortholog inserted at SOA1 locus, sulfur-free B medium, 4% glucose, pH 6.5, sole sulfur source
[17] = test system: Aspergillus nidulans_XP_661733; assay: as above; conditions: S. cerevisiae S288C/BY sul1Δ sul2Δ soa1Δ with transporter ortholog inserted at SOA1 locus, sulfur-free B medium, 4% glucose, pH 6.5, sole sulfur source
[18] = test system: Fusarium oxysporum_ENH65823; assay: as above; conditions: sulfur source concentration 200 µM; S. cerevisiae S288C/BY sul1Δ sul2Δ soa1Δ with transporter ortholog inserted at SOA1 locus; sulfur-free B medium, 4% glucose, pH 6.5, sole sulfur source
[19] = test system: Aspergillus nidulans_XP_661711; assay: as above; conditions: sulfur source concentration 200 µM; S. cerevisiae S288C/BY sul1Δ sul2Δ soa1Δ with transporter ortholog inserted at SOA1 locus; sulfur-free B medium, 4% glucose, pH 6.5, sole sulfur source
[20] = test system: Aspergillus nidulans_CBF74694; assay: as above; conditions: sulfur source concentration 200 µM; S. cerevisiae S288C/BY sul1Δ sul2Δ soa1Δ with transporter ortholog inserted at SOA1 locus; sulfur-free B medium, 4% glucose, pH 6.5, sole sulfur source
[21] = test system: Aspergillus nidulans_XP_660670; assay: as above; conditions: sulfur source concentration 200 µM; S. cerevisiae S288C/BY sul1Δ sul2Δ soa1Δ with transporter ortholog inserted at SOA1 locus; sulfur-free B medium, 4% glucose, pH 6.5, sole sulfur source
[22] = test system: Ogataea parapolymorpha_XP_013936897; assay: as above; conditions: sulfur source concentration 200 µM; S. cerevisiae S288C/BY sul1Δ sul2Δ soa1Δ with transporter ortholog inserted at SOA1 locus; sulfur-free B medium, 4% glucose, pH 6.5, sole sulfur source
[23] = test system: Aspergillus nidulans_XP_681611; assay: as above; conditions: sulfur source concentration 200 µM; S. cerevisiae S288C/BY sul1Δ sul2Δ soa1Δ with transporter ortholog inserted at SOA1 locus; sulfur-free B medium, 4% glucose, pH 6.5, sole sulfur source
[24] = test system: Metarhizium robertsii_XP_007821441; assay: as above; conditions: sulfur source concentration 200 µM; S. cerevisiae S288C/BY sul1Δ sul2Δ soa1Δ with transporter ortholog inserted at SOA1 locus; sulfur-free B medium, 4% glucose, pH 6.5, sole sulfur source
[25] = test system: Ogataea parapolymorpha_XP_013932458; assay: as above; conditions: sulfur source concentration 200 µM; S. cerevisiae S288C/BY sul1Δ sul2Δ soa1Δ with transporter ortholog inserted at SOA1 locus; sulfur-free B medium, 4% glucose, pH 6.5, sole sulfur source
soa1 del [26] = assay: as above; conditions: sulfur source concentration 200 µM; S. cerevisiae S288C/BY sul1Δ sul2Δ soa1Δ with transporter ortholog inserted at SOA1 locus; sulfur-free B medium, 4% glucose, pH 6.5, sole sulfur source
[27] = test system: Aspergillus nidulans_XP_660563; assay: as above; conditions: sulfur source concentration 200 µM; S. cerevisiae S288C/BY sul1Δ sul2Δ soa1Δ with transporter ortholog inserted at SOA1 locus; sulfur-free B medium, 4% glucose, pH 6.5, sole sulfur source
[28] = test system: Aspergillus nidulans_CBF80346; assay: as above; conditions: sulfur source concentration 200 µM; S. cerevisiae S288C/BY sul1Δ sul2Δ soa1Δ with transporter ortholog inserted at SOA1 locus; sulfur-free B medium, 4% glucose, pH 6.5, sole sulfur source
[29] = sulfur source concentration 200 µM
[30] = sulfur source concentration 40000 µM

CCCCS(=O)(=O)O [Butanesulfonate]
lag phase before growth [1]: 10.1 h | maximal culture density [2, 29]: 1.69 | maximal culture density [3, 29]: 0.596 | maximal culture density [4, 29]: 0.261 | maximal culture density [5, 29]: 0.267 | maximal culture density [6, 29]: 0.323 | maximal culture density [7]: 0.241 | maximal culture density [8, 29]: 0.368 | maximal culture density [9, 29]: 1.6 | maximal culture density [10, 29]: 1.57 | maximal culture density [11, 29]: 0.246 | maximal culture density [12, 29]: 1.59 | maximal culture density (soa1 del [13]; [29]): 0.247 | maximal culture density [14, 29]: 0.26

CCS(=O)(=O)O [Ethanesulfonate]
lag phase before growth [1]: 13.1 h | maximal culture density [2, 29]: 1.75 | maximal culture density [3, 29]: 0.477 | maximal culture density [4, 29]: 1.6 | maximal culture density [5, 29]: 0.209 | maximal culture density [6, 29]: 0.296 | maximal culture density [7]: 0.197 | maximal culture density [8, 29]: 0.319 | maximal culture density [9, 29]: 1.58 | maximal culture density [10, 29]: 1.58 | maximal culture density [11, 29]: 0.214 | maximal culture density [12, 29]: 1.59 | maximal culture density (soa1 del [13]; [29]): 0.215 | maximal culture density [14, 29]: 0.22

O=S(=O)(O)CO [Hydroxymethane sulfonate]
lag phase before growth [15, 29]: 4.31 h | lag phase before growth [1]: 23.8 h | lag phase before growth [16, 29]: 0.457 h | maximal culture density [2, 29]: 1.66 | maximal culture density [3, 29]: 1.6 | maximal culture density [4, 29]: 1.59 | maximal culture density [5, 29]: 0.207 | maximal culture density [6, 29]: 0.303 | maximal culture density [7]: 0.195 | maximal culture density [8, 29]: 0.322 | maximal culture density [9, 29]: 1.62 | maximal culture density [10, 29]: 1.59 | maximal culture density [11, 29]: 1.04 | maximal culture density [12, 29]: 1.6 | maximal culture density (soa1 del [13]; [29]): 0.212 | maximal culture density [14, 29]: 0.208

N[C@@H](CS(=O)(=O)O)C(=O)O [L-cysteic acid]
lag phase before growth [15, 29]: 7.57 h | lag phase before growth [17, 29]: 17.2 h | lag phase before growth [18]: 7.6 h | lag phase before growth [19]: 5.14 h | maximal culture density [2, 29]: 0.254 | maximal culture density [3, 29]: 1.41 | maximal culture density [4, 29]: 1.38 | maximal culture density [5, 29]: 1.13 | maximal culture density [6, 29]: 0.391 | maximal culture density [7]: 1.16 | maximal culture density [8, 29]: 0.861 | maximal culture density [9, 29]: 1.51 | maximal culture density [10, 29]: 0.561 | maximal culture density [11, 29]: 0.3 | maximal culture density [12, 29]: 1.25 | maximal culture density (soa1 del [13]; [29]): 0.254 | maximal culture density [14, 29]: 0.823

CSCC[C@H](N)C(=O)O [Methionine]
lag phase before growth [15, 29]: 4.38 h | lag phase before growth [20]: 5.36 h | lag phase before growth [1]: 4.47 h | lag phase before growth [17, 29]: 4.49 h | lag phase before growth [16, 29]: 5.14 h | lag phase before growth [21]: 4.47 h | lag phase before growth [22]: 2.97 h | lag phase before growth [18]: 5.35 h | lag phase before growth [23]: 3.6 h | lag phase before growth [24]: 4.5 h | lag phase before growth [25]: 3.88 h | lag phase before growth [19]: 4.47 h | lag phase before growth (soa1 del [26]): 4.14 h | lag phase before growth [27]: 3.48 h | lag phase before growth [28]: 5.16 h | maximal culture density [2, 29]: 1.63 | maximal culture density [3, 29]: 1.59 | maximal culture density [4, 29]: 1.59 | maximal culture density [5, 29]: 1.6 | maximal culture density [6, 29]: 1.57 | maximal culture density [7]: 1.59 | maximal culture density [8, 29]: 1.64 | maximal culture density [9, 29]: 1.55 | maximal culture density [10, 29]: 1.55 | maximal culture density [11, 29]: 1.59 | maximal culture density [12, 29]: 1.57 | maximal culture density (soa1 del [13]; [29]): 1.69 | maximal culture density [14, 29]: 1.58

CCCS(=O)(=O)O [Propanesulfonate]
lag phase before growth [1]: 14 h | maximal culture density [2, 29]: 1.7 | maximal culture density [3, 29]: 0.486 | maximal culture density [4, 29]: 1.88 | maximal culture density [5, 29]: 0.231 | maximal culture density [6, 29]: 0.296 | maximal culture density [7]: 0.232 | maximal culture density [8, 29]: 0.35 | maximal culture density [9, 29]: 1.59 | maximal culture density [10, 29]: 1.56 | maximal culture density [11, 29]: 0.263 | maximal culture density [12, 29]: 1.56 | maximal culture density (soa1 del [13]; [29]): 0.212 | maximal culture density [14, 29]: 0.212

O=S(=O)(O)O [sulfate]
lag phase before growth [15, 29]: 8.36 h | lag phase before growth [15, 30]: 11.7 h | lag phase before growth [17, 30]: 39.2 h | lag phase before growth [16, 29]: 6.92 h | lag phase before growth [16, 30]: 7.29 h | maximal culture density [2, 29]: 0.201 | maximal culture density [2, 30]: 0.21 | maximal culture density [3, 29]: 1.6 | maximal culture density [3, 30]: 1.68 | maximal culture density [4, 29]: 0.186 | maximal culture density [4, 30]: 0.213 | maximal culture density [5, 29]: 0.223 | maximal culture density [5, 30]: 0.277 | maximal culture density [6, 29]: 0.294 | maximal culture density [6, 30]: 0.301 | maximal culture density [7]: 0.233 | maximal culture density [8, 29]: 0.294 | maximal culture density [8, 30]: 0.301 | maximal culture density [9, 29]: 1.58 | maximal culture density [9, 30]: 1.65 | maximal culture density [10, 29]: 0.251 | maximal culture density [10, 30]: 1.62 | maximal culture density [11, 29]: 0.215 | maximal culture density [11, 30]: 0.225 | maximal culture density [12, 29]: 0.265 | maximal culture density [12, 30]: 1.65 | maximal culture density (soa1 del [13]; [29]): 0.212 | maximal culture density (soa1 del [13]; [30]): 0.222 | maximal culture density [14, 29]: 0.243 | maximal culture density [14, 30]: 0.216

O=S(O)O [sulfite]
lag phase before growth [15, 29]: 8.25 h | lag phase before growth [16, 29]: 6.93 h | maximal culture density [2, 29]: 0.645 | maximal culture density [3, 29]: 1.6 | maximal culture density [4, 29]: 1 | maximal culture density [5, 29]: 0.243 | maximal culture density [6, 29]: 0.284 | maximal culture density [7]: 0.256 | maximal culture density [8, 29]: 0.308 | maximal culture density [9, 29]: 1.61 | maximal culture density [10, 29]: 1.58 | maximal culture density [11, 29]: 0.235 | maximal culture density [12, 29]: 1.61 | maximal culture density (soa1 del [13]; [29]): 0.222 | maximal culture density [14, 29]: 0.262
